Test results from patent US4734418A, “Quinazoline compounds and antihypertensives” (priority 1984, dated 1988).
Read-outs that look alike come from different tables or passages of the source.

Tested on: Spontaneously Hypertensive Rats
Assay: Test 1: antihypertensive effects (systolic tail artery blood pressure) and heart rate in spontaneously hypertensive rats, oral
Format: in vivo, rat (male, SHR)
Conditions: SHR, oral 1 mg/Kg; for change in vivo at 1 mg/kg: Rattus norvegicus; for Change (%) in heart rate: maximum value
Method: The antihypertensive effects of the certain compounds of this invention were studied in the following manner.
Among male, spontaneously hypertensive rats (SHRs) of 20 weeks of age or older and 350-430 g heavy all of which had developed hypertension, those having systolic blood pressures of 180 mmHg or higher were used in groups, each of which was constituted of 3-4 of the rats. […] Besides, heart rates were also measured simultaneously. The compounds were each dissolved or suspended in a 0.5% methylcellulose solution and then administered orally.
*All administered orally at a dosage of 1 mg/Kg except for the compounds
**Each percent change in heart rate is indicated by the corresponding

[1] = 1 hour, read-out: Antihypertensive effects, change (%) in blood pressure, 1 hour later
[2] = 3 hours, read-out: Antihypertensive effects, change (%) in blood pressure, 3 hours later
[3] = 6 hours, read-out: Antihypertensive effects, change (%) in blood pressure, 6 hours later
[4] = 24 hours, read-out: Antihypertensive effects, change (%) in blood pressure, 24 hours later

SMILES	change in vivo at 1 mg/kg [1]	change in vivo at 1 mg/kg [2]	change in vivo at 1 mg/kg [3]	change in vivo at 1 mg/kg [4]	Change (%) in heart rate
CCn1cc(Cc2ccccc2)c2nc(N3CCN(c4nc(N)c5cc(OC)c(OC)cc5n4)CC3)ncc2c1=O [Example 15]	-2.9%	-7.7%	-12%	-7.7%	+3.7%
CCn1ccc2nc(N3CCN(c4ncc5ccccc5n4)CC3)ncc2c1=O [Example 96, 2-(4-(5,6-Dihydro-6-ethyl-5-oxopyrido[4,3-d]pyrimidine-2-yl)piperazino)quinazoline]	3%	-2.5%	-8%	-6.5%	+2.9%
COCCn1ccc2nc(N3CCN(c4nc(N)c5cc(OC)c(OC)cc5n4)CC3)ncc2c1=O [Example 8]	-0.5%	-9.5%	-11.4%	-4%	+5.2%
CCN(CC)C(=O)c1ccc(N2CCN(c3nc(N)c4cc(OC)c(OC)cc4n3)CC2)nc1 [Example 93]	-4.5%	-9%	-10.5%	-5%	+8.0%
CCNC(=O)c1cnc(N2CCN(c3nc(N)c4cc(OC)c(OC)cc4n3)CC2)nc1C [Example 41]	-11.2%	-19.5%	-25.9%	-3.9%	+9.2%
COc1cc2nc(N3CCN(c4ncc(C(=O)N5CCCC5)c(C)n4)CC3)nc(N)c2cc1OC [Example 49]	-4.5%	-10.6%	-13.1%	-7.5%	+6.3%
CCOC(=O)c1cnc(N2CCN(c3nc(N)c4cc(OC)c(OC)cc4n3)CC2)nc1NC [Example 55]	-6.5%	-21.9%	-29.9%	-7.5%	+7.0%
COc1cc2nc(N3CCN(c4ncc5c(n4)N(C)CCN(C)C5=O)CC3)nc(N)c2cc1OC [Example 76]	0%	-3.8%	-7.2%	-9.6%	+2.9%
CCn1ccc2c(c1=O)CN=C(N1CCN(c3nc(N)c4cc(OC)c(OC)cc4n3)CC1)N2 [Example 35]	-0.5%	-8.7%	-16.3%	-15.9%	+9.1%
CCn1cc(C)c2nc(N3CCN(c4nc(N)c5cc(OC)c(OC)cc5n4)CC3)ncc2c1=O [Example 12]	-11%	-14.3%	-19%	-6.7%	+7.0%
CCNC(=O)Cc1cnc(N2CCN(c3nc(N)c4cc(OC)c(OC)cc4n3)CC2)nc1NCC [Example 63]	3.1%	-4.7%	-9%	-6.6%	+6.8%
COc1cc2nc(N3CCN(c4ncc5c(n4)CN(CCc4ccccc4)C5=O)CC3)nc(N)c2cc1OC [Example 89]	-2.4%	-13.3%	-13.8%	-2.9%	+5.8%
COc1cc2nc(N3CCN(c4ccc5ccccc5n4)CC3)nc(N)c2cc1OC.Cl [Example 94, 4-Amino-6,7-dimethoxy-2-(4-(2-quinolyl)piperazino)quinazoline hydrochloride]	-0.5%	-12.7%	-22.1%	-5.4%	+5.4%
CCOC(=O)c1cnc(N2CCN(c3nc(N)c4cc(OC)c(OC)cc4n3)CC2)nc1N [Example 54]	-4.3%	-11.4%	-16.7%	-4.8%	+5.2%
CCN(CC)C(=O)c1cnc(N2CCN(c3nc(N)c4cc(OC)c(OC)cc4n3)CC2)nc1C [Example 42]	-16.5%	-19.5%	-24%	-7.5%	+5.2%
CCn1ccc2nc(N3CCN(c4nc(N)c5cc(OC)c(OC)cc5n4)CC3)ncc2c1=S [Example 16]	-2%	-8.9%	-15.3%	-8.9%	+7.5%
CCn1cc(C#N)c2nc(N3CCN(c4nc(N)c5cc(OC)c(OC)cc5n4)CC3)ncc2c1=O [Example 13]	-1%	-3.9%		-3.9%	+7.4%

SMILES	change in vivo at 1 mg/kg [1]	change in vivo at 1 mg/kg [2]	change in vivo at 1 mg/kg [3]	change in vivo at 1 mg/kg [4]	Change (%) in heart rate
COc1cc2nc(N3CCN(c4nc(SC)c5c6c(sc5n4)CCCC6C)CC3)nc(N)c2cc1OC (stereo not shown) [Example 75]	12.2%	0.5%	-7.8%	-3.9%	+8.2%
CCOC(=O)c1cnc(N2CCN(c3nc(N)c4cc(OC)c(OC)cc4n3)CC2)nc1NC(C)C [Example 59]	-10.1%	-23.9%	-30.6%	-12.4%	+5.7%
CCOC(=O)c1cnc(N2CCN(c3nc(N)c4cc(OC)c(OC)cc4n3)CC2)nc1NC(C)=O [Example 60]	-1.6%	-5.2%	-8.8%	-1%	+6.0%
CCn1ccc2nc(N3CCN(c4ncc5cc(OC)c(OC)cc5n4)CC3)ncc2c1=O [Example 95, 6,7-Dimethoxy-2-(4-(5,6-dihydro-6-ethyl-5-oxopyrido[4,3-d]pyrimidine-2-yl)piperazino)quinazoline]	2.5%	-2.9%	-6.4%	-3.9%	+5.8%
CCNc1nc(N2CCN(c3nc(N)c4cc(OC)c(OC)cc4n3)CC2)ncc1C(=O)OCC [Example 57]	-10.4%	-18.9%	-27.9%	-9%	+4.3%
CCOc1nccc2nc(N3CCN(c4nc(N)c5cc(OC)c(OC)cc5n4)CC3)ncc12 [Example 74]	-0.5%	-14.1%	-23.3%	-12.1%	+9.0%
COc1cc2nc(N3CCN(c4ncc5c(n4)CN(CCO)C5=O)CC3)nc(N)c2cc1OC [Example 88]	0.5%	-4.4%	-6.9%	-2%	+5.8%
CCNC(=O)c1cnc(N2CCN(c3nc(N)c4cc(OC)c(OC)cc4n3)CC2)nc1CC [Example 38]	-26.6%	-24.1%	-27.6%	-7.9%	+7.9%
COc1cc2nc(N3CCN(c4ncc5c(=O)[nH]ccc5n4)CC3)nc(N)c2cc1OC [Example 3]	-2.5%	-8%	-15.1%	-5%	+7.1%
COc1cc2nc(N3CCN(c4ncc(C(N)=O)c(C)n4)CC3)nc(N)c2cc1OC [Example 40]	-1.4%	-15.9%	-18.4%	-8.2%	+5.8%
COc1cc2cnc(N3CCN(c4nc(N)c5cc(OC)c(OC)cc5n4)CC3)nc2cc1OC [Example 71]	0.5%	-13.4%	-19.1%	-9.6%	+15.9%
COc1cc2nc(N3CCN(c4ncc5c(n4)CCCC(=O)N5)CC3)nc(N)c2cc1OC [Example 31]	-2.8%	-8.5%	-17.8%	-3.8%	
CCOC(=O)c1cnc(N2CCN(c3nc(N)c4cc(OC)c(OC)cc4n3)CC2)nc1N(CC)CC [Example 58]	-7.4%	-17.6%	-22.5%	-9.8%	+9.8%
COc1cc2nc(N3CCN(c4ncc(C(=O)NC5CCCCC5)c(C)n4)CC3)nc(N)c2cc1OC [Example 45]	-1.5%	-2.5%	-8%	-5.5%	+4.2%
COc1cc2nc(N3CCN(c4nc(N)c5cc(OC)c(OC)cc5n4)CC3)nc(N)c2cc1OC [Example 72]	2.9%	-2%	-2.5%	-2.9%	+8.6%
CCNC(=O)c1cnc(N2CCN(c3nc(N)c4cc(OC)c(OC)cc4n3)CC2)nc1 [Example 37]	-4.7%	-16.4%	-21.1%	-8.5%	+5.8%
